In PubChem BioAssay (NCI):
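All cell lines were grown in 96-well plates and treated with compound for 48 hours. TGI: total growth inhibition.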

Tests used:
Test in all cases: growth of human tumour cells (NCI), 48 h
UACC-257 melanoma = system: UACC-257 melanoma
MCF7 breast = system: MCF7 breast
K-562 leukemia = system: K-562 leukemia
SNB-75 CNS = system: SNB-75 CNS
LOX IMVI melanoma = system: LOX IMVI melanoma
OVCAR-4 ovarian = system: OVCAR-4 ovarian
OVCAR-3 ovarian = system: OVCAR-3 ovarian
HCT-15 colon = system: HCT-15 colon
M14 melanoma = system: M14 melanoma
CAKI-1 renal = system: CAKI-1 renal
RXF 393 renal = system: RXF 393 renal
OVCAR-5 ovarian = system: OVCAR-5 ovarian
SW-620 colon = system: SW-620 colon
CCRF-CEM leukemia = system: CCRF-CEM leukemia
IGROV1 ovarian = system: IGROV1 ovarian
HOP-92 NSCLC = system: HOP-92 NSCLC
MALME-3M melanoma = system: MALME-3M melanoma
HL-60(TB) leukemia = system: HL-60(TB) leukemia

Row | SMILES | TGI (UACC-257 melanoma) | TGI (MCF7 breast) | TGI (K-562 leukemia) | TGI (SNB-75 CNS) | TGI (LOX IMVI melanoma) | TGI (OVCAR-4 ovarian) | TGI (OVCAR-3 ovarian) | TGI (HCT-15 colon) | TGI (M14 melanoma) | TGI (CAKI-1 renal) | TGI (RXF 393 renal) | TGI (OVCAR-5 ovarian) | TGI (SW-620 colon) | TGI (CCRF-CEM leukemia) | TGI (IGROV1 ovarian) | TGI (HOP-92 NSCLC) | TGI (MALME-3M melanoma) | TGI (HL-60(TB) leukemia)
1 | ClC1(Cl)C(c2ccccc2)C1c1ccccc1 (stereo not drawn) | > 100 µM | > 100 µM | > 100 µM | > 100 µM | 93 µM | > 100 µM | 87.8 µM | > 100 µM | 90.7 µM | 75.9 µM | 37.8 µM | > 100 µM | > 100 µM |  |  |  |  | 
2 | CCOC(=O)NNC(=O)C1CSC(c2ccccc2)N1C(C)=O (stereo not drawn) | > 100 µM | > 100 µM | > 100 µM | > 100 µM | > 100 µM | > 100 µM | > 100 µM | > 100 µM | > 100 µM | > 100 µM |  | > 100 µM | > 100 µM | > 100 µM | > 100 µM | > 100 µM | > 100 µM | > 100 µM
3 | Cc1csc2nc3c(cnn3C)c(=S)n12 | > 100 µM | > 100 µM | > 100 µM | > 100 µM | > 100 µM | > 100 µM | > 100 µM | > 100 µM | > 100 µM | > 100 µM | > 100 µM | > 100 µM | > 100 µM | > 100 µM | > 100 µM |  | > 100 µM | 
4 | CN1C2CCC1CC(CCOC(c1ccc(F)cc1)c1ccc(F)cc1)C2 (stereo not drawn) | 34.1 µM |  | 35.8 µM | 30.4 µM | 30.3 µM | 38.8 µM | 32.4 µM | 32.3 µM | 32.5 µM | 32.6 µM | 22.6 µM | 36.7 µM | 41.8 µM | 46.1 µM | 32.1 µM | 34.3 µM | 29.3 µM | 34.9 µM
5 | OC(CCN1CCCCC1)(c1ccccc1)c1ccccc1 |  | > 100 µM | > 100 µM |  | > 100 µM |  | > 100 µM | > 100 µM | > 100 µM | > 100 µM | > 100 µM | > 100 µM | > 100 µM | > 100 µM | > 100 µM | > 100 µM | > 100 µM | 
6 | Cc1cc(C)nc(NS(=O)(=O)c2ccc(Nc3c4ccccc4nc4c(C(=O)NNCCO)cccc34)cc2)n1 | > 100 µM | > 100 µM | > 100 µM |  | > 100 µM | > 100 µM | > 100 µM | > 100 µM | > 100 µM | > 100 µM |  | > 100 µM | > 100 µM | > 100 µM | > 100 µM | > 100 µM | > 100 µM | > 100 µM
7 | O=C1CC(=O)NC(=NN2C(=O)/C(=C/C(=O)c3ccco3)N=C2c2ccccc2)N1 | > 100 µM | > 100 µM |  | > 100 µM |  | > 100 µM | > 100 µM | > 100 µM | > 100 µM | > 100 µM | > 100 µM | > 100 µM | > 100 µM | 51.7 µM | > 100 µM | > 100 µM | > 100 µM | 
